Consider one compound from ChEMBL document CHEMBL5512640, “Discovery of novel itaconimide-based derivatives as potent HDAC inhibitors for the efficient treatment of prostate cancer” (Eur J Med Chem, 2024).

A word on the half-life: it is the time in which the quantity being followed falls by half. Low values mean rapid decline, high ones slow decline. As a reminder, the IC50 is the concentration at which inhibition is half-maximal. A word on the Cmax: it is the peak of the concentration-time curve.

Series [1] can be described thus: Half life in Sprague-Dawley rat at 10 mg/kg, po measured upto 24 hrs by LC-MS/MS analysis. The format is ADME, organism-based. The settings on record: in vivo.
In series [2] the target is Histone deacetylase 2 (Homo sapiens, UniProt Q92769). As to the kind of experiment: Inhibition of human HDAC2 incubated for 10 mins followed by fluorogenic substrate addition by fluorescence based analysis.
Chain of Histone deacetylase 2 (Q92769 whole entry): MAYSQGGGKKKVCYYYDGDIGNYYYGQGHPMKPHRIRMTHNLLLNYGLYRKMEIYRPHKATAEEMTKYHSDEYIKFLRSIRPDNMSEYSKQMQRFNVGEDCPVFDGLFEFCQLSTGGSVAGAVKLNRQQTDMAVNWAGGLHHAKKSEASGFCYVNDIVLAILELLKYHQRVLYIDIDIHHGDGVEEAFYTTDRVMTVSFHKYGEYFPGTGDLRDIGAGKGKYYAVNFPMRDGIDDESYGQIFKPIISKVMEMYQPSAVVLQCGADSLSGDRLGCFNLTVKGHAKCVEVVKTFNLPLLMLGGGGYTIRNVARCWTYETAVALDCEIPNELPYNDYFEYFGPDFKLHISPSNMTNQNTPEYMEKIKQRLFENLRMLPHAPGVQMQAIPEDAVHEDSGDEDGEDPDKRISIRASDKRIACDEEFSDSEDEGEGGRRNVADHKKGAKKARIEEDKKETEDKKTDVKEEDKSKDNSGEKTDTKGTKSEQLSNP
Series [3] concerns NCI-H446. As to the kind of experiment: Antiproliferative activity against human NCI-H446 cells incubated for 96 hrs by MTT assay. The format is functional, cell-based. The settings on record: NCI-H446, 96 h. A general note: Formazan colour is commonly taken as a measure of viable cells.
Series [4] deals with HCT-116. In words: Antiproliferative activity against human HCT-116 cells incubated for 96 hrs by MTT assay. The settings on record: HCT-116, 96 h. The class given is functional, cell-based.
A short description of series [5]: Cmax in Sprague-Dawley rat at 10 mg/kg, po measured upto 24 hrs by LC-MS/MS analysis. The settings on record: in vivo. The format is ADME, organism-based.
In series [6] the test system is DU-145. In words: Induction of cell cycle arrest in human DU-145 cells assessed as increase in accumulation of cells at G2/M phase incubated for 24 hrs by PI staining based flow cytometry analysis. As to conditions: dose 0.4-3.2 µM. The class given is functional.
A short description of series [7]: Acute toxicity in male Sprague-Dawley rat assessed as effect on body weight at 500 to 4500 mg/kg, po measured every 3 days for 15 days. As to conditions: in vivo, 360 h, dose 500-4500 mg/kg, time 15 day. The class given is organism-based.
The nature of series [8]: Toxicity in Balb/c mouse assessed as effect on body weight at 100 to 200 mg/kg, po measured upto 40 days. The class given is organism-based. As to conditions: in vivo, 960 h, dose 100-200 mg/kg, time < 40 day.
Series [9] has as its target Histone deacetylase 3 (Homo sapiens, UniProt O15379). In words: Inhibition of human HDAC3 incubated for 10 mins followed by fluorogenic substrate addition by fluorescence based analysis.
Series [10] has as its system MCF7. As to the kind of experiment: Antiproliferative activity against human MCF7 cells incubated for 96 hrs by MTT assay. The format is functional, cell-based. The settings on record: MCF7, 96 h.
Series [11] concerns the target Histone deacetylase 7 (Homo sapiens, UniProt Q8WUI4). As to the kind of experiment: Inhibition of human HDAC7 incubated for 10 mins followed by fluorogenic substrate addition by fluorescence based analysis.
Series [12] has as its system LNCaP. In words: Antiproliferative activity against human LNCaP cells incubated for 96 hrs by MTT assay. The class given is functional, cell-based.
The subject of series [13] is DU-145. As to the kind of experiment: Induction of apoptosis in human DU-145 cells assessed as apoptotic rate at 1.6 uM measured after 72 hrs by annexin V-FITC and PI staining based flow cytometry analysis relative to control. The class given is functional. For orientation: Flow cytometry measures light scatter and fluorescence of single cells or particles in a stream.

Series [14] relates to DU-145. In words: Upregulation of Ac-H3 level in human DU-145 cells incubated for 24 hrs by Western blot analysis. The class given is functional, cell-based. As to conditions: dose 0.8-3.2 µM. On the technique in general: In western blotting, separated proteins are transferred to a membrane and probed.

Chain of Histone deacetylase 7 (Q8WUI4 whole entry): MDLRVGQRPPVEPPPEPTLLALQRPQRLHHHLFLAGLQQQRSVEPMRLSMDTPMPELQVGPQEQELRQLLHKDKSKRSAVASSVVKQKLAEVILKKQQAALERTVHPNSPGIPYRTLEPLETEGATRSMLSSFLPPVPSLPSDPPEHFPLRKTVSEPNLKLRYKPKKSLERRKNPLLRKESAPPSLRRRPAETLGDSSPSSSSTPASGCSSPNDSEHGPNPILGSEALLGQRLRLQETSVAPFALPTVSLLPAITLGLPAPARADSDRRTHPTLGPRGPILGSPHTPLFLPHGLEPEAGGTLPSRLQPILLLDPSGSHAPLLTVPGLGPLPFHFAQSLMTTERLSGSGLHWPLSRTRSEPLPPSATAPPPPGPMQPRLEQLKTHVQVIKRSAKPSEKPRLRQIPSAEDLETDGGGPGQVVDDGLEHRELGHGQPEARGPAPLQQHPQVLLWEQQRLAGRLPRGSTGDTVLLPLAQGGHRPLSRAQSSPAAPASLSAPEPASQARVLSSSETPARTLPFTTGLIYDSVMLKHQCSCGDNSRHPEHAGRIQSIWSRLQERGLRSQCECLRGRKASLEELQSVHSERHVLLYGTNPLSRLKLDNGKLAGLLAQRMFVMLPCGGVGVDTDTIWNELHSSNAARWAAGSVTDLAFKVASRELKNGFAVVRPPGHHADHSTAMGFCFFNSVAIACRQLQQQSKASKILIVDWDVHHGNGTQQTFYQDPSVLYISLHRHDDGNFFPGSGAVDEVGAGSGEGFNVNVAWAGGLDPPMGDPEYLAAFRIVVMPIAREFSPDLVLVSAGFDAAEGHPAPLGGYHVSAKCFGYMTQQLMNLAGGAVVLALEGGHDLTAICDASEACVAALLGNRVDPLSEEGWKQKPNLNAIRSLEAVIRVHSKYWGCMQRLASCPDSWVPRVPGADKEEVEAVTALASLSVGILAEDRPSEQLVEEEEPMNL
Chain of Histone deacetylase 3 (O15379 whole entry): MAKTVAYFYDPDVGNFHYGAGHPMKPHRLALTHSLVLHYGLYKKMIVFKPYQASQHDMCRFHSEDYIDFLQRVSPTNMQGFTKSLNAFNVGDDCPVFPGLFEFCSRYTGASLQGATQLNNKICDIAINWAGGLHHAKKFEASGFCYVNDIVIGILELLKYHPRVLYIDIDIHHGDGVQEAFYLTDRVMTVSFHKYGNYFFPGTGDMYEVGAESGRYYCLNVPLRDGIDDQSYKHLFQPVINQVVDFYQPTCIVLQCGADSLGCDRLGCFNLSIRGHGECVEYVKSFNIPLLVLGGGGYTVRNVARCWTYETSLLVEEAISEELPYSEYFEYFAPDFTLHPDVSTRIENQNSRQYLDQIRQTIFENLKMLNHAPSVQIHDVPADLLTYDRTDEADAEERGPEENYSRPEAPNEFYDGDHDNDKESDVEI

For `COc1ccccc1/C=C1\CC(=O)N(CCCCCCC(=O)NO)C1=O`, the half-life in series [1] is 2.87 h. Moreover, the IC50 was 14.1 nM in series [2]; 650 nM in series [3]; 470 nM in series [4]; 20 nM in series [9]; 350 nM in [10]; more than 5000 nM in series [11]. For the same compound, the midpoint of inhibition in series [12], the IC50, lay at 630 nM. This compound yielded a peak concentration (Cmax) in series [5] of 774 ng/mL. The Activity entry was “Dose-Dependent Effect” in [6]; “Non-Toxic” in series [7]; “Non-Toxic” in [8]; 59.87% in series [13]; “Dose-Dependent Effect” in series [14].
